Results from patent US9511073B2, “Aromatic amides and uses thereof” (TAXIS Pharmaceuticals, Inc., priority 2011, dated 2016).
Values after ≈ are worked out from the molar mass of the structure shown.

Test system: Staphylococcus aureus (Isolate ID ATCC 29213)
Test: Bacterial assay: MIC by broth microdilution or agar dilution (CLSI), S. aureus ATCC 29213
Type: cell-based
Details: Staphylococcus aureus, ATCC29213, read-out: S. aureus MIC (μg/mL) Activity Range, S. aureus (ATCC29213)
Method: Compounds are tested for antimicrobial activity by susceptibility testing in liquid or on solid media. Minimum inhibitory concentrations (MICs) for compounds against each strain are determined by the broth microdilution or agar dilution method according to the guidelines of the Clinical Laboratories and Standards Institute, formerly the National Committee for Clinical Laboratory Standards (Clinical Laboratories and Standards Institute. Methods for Dilution Antimicrobial Susceptibility Tests for Bacteria That Grow Aerobically; Approved Standard—Seventh Edition. Document M7-A7. CLSI, Wayne, Pa., 2006; Clinical Laboratories and Standards Institute). The bacterial strains tested include S. aureus (Staphylococcus aureus (Isolate ID ATCC 29213)) and an FtsZ mutant of this isolate (FtsZ-G196A Staphylococcus aureus (Isolate ID GG/190723/sa/1.2)). Compound MICs were determined to be in the following activity ranges “A” activity≦0.25 μg/mL; “B” activity>0.25 μg/mL-1.0 μg/mL; “C” activity>1.0 μg/mL-16 μg/mL; “D” activity>16 μg/mL and ND=not determined. The bracketed entries indicate entantiomer(s) and their activity.

**Q.** For `NC(=O)OCC(Oc1ccc(F)c(C(N)=O)c1F)c1nc(-c2ccc(C(F)(F)F)cc2)c(Cl)o1` (centres unmarked) [Compound 52, 2-(3-carbamoyl-2,4-difluorophenoxy)-2-(5-chloro-4-(4-(trifluoromethyl)phenyl)oxazol-2-yl)ethyl carbamate], which MIC is on record?
**A.** The MIC was 0.25 to 1 µg/mL (≈ 0.494 to 1.98 µM).

**Q.** Which MIC does the source give for `CCCc1oc(C(C)Oc2ccc(F)c(C(N)=O)c2F)nc1-c1ccc(Cl)cc1` (centres unmarked) [Compound 19] here?
**A.** Its MIC is 0.25 to 1 µg/mL (≈ 0.594 to 2.38 µM).

**Q.** How did the MIC turn out when `NC(=O)c1c(F)ccc(OC(COC(=O)N2CCNCC2)c2nc(-c3ccc(C(F)(F)F)cc3)c(Br)o2)c1F` (centres unmarked) [Compound 135, 2-(5-bromo-4-(4-(trifluoromethyl)phenyl)oxazol-2-yl)-2-(3-carbamoyl-2,4-difluorophenoxy)ethyl piperazine-1-carboxylate] was run?
**A.** Its MIC is 1 to 16 µg/mL (≈ 1.61 to 25.8 µM).

**Q.** `NC(=O)c1c(F)ccc(OC(c2cccnc2)c2nc(-c3ccc(Cl)cc3)c(Br)o2)c1F` (centres unmarked) [Compound 99, 3-((5-bromo-4-(4-chlorophenyl)oxazol-2-yl)(pyridin-3-yl)methoxy)-2,6-difluorobenzamide] was tested. Which MIC did it give?
**A.** Its MIC is 1 to 16 µg/mL (≈ 1.92 to 30.7 µM).

**Q.** `COc1ccc(-c2nc(C(CO)Oc3ccc(F)c(C(N)=O)c3F)oc2Br)nc1` (centres unmarked) [Compound 238, 3-(1-(5-bromo-4-(5-methoxypyridin-2-yl)oxazol-2-yl)-2-hydroxyethoxy)-2,6-difluorobenzamide] was tested. Which MIC did it give?
**A.** Its MIC is > 16 µg/mL.

**Q.** How did the MIC turn out when `NC(=O)c1c(F)ccc(OC(COC(=O)NCC(=O)O)c2nc(-c3ccc(C(F)(F)F)cc3)c(Br)o2)c1F` (centres unmarked) [Compound 142, 2-(((2-(5-bromo-4-(4-(trifluoromethyl)phenyl)oxazol-2-yl)-2-(3-carbamoyl-2,4-difluorophenoxy)ethoxy)carbonyl)amino)acetic acid] was run?
**A.** The MIC was > 16 µg/mL.

**Q.** For `N#Cc1ccc(-c2nc([C@@H](CO)Oc3ccc(F)c(C(N)=O)c3F)oc2Br)cn1` [Compound 249B, (R)-3-(1-(5-bromo-4-(6-cyanopyridin-3-yl)oxazol-2-yl)-2-hydroxyethoxy)-2,6-difluorobenzamide], which MIC is on record?
**A.** The MIC was 1 to 16 µg/mL (≈ 2.15 to 34.4 µM).

**Q.** With `NC(=O)c1c(F)ccc(OC(COC(=O)Nc2ccncc2)c2nc(-c3ccc(C(F)(F)F)cc3)c(Br)o2)c1F` (centres unmarked) [Compound 176, 2-(5-bromo-4-(4-(trifluoromethyl)phenyl)oxazol-2-yl)-2-(3-carbamoyl-2,4-difluorophenoxy)ethyl pyridin-4-ylcarbamate] as the compound, how does the MIC read?
**A.** The MIC was 0.25 to 1 µg/mL (≈ 0.399 to 1.59 µM).

**Q.** With `Cc1nccn1CCNC(=O)OCC(Oc1ccc(F)c(C(N)=O)c1F)c1nc(-c2ccc(C(F)(F)F)cc2)c(Br)o1` (centres unmarked) [Compound 190, 2-(5-bromo-4-(4-(trifluoromethyl)phenyl)oxazol-2-yl)-2-(3-carbamoyl-2,4-difluorophenoxy)ethyl (2-(2-methyl-1H-imidazol-1-yl)ethyl)carbamate] as the compound, how does the MIC read?
**A.** Its MIC is 1 to 16 µg/mL (≈ 1.52 to 24.3 µM).

**Q.** For `NC(=O)c1c(F)ccc(OC(CCCO)c2nc(-c3ccc(C(F)(F)F)cc3)c(Br)o2)c1F` (centres unmarked) [Compound 90, 3-(1-(5-bromo-4-(4-(trifluoromethyl)phenyl)oxazol-2-yl)-4-hydroxybutoxy)-2,6-difluorobenzamide], which MIC is on record?
**A.** Its MIC is 0.25 to 1 µg/mL (≈ 0.467 to 1.87 µM).

**Q.** `CC(=O)OCC(Oc1ccc(F)c(C(N)=O)c1F)c1nc(-c2ccc(C(F)(F)F)cc2)c(Br)o1` (centres unmarked) [Compound 37, 2-(5-bromo-4-(4-(trifluoromethyl)phenyl)oxazol-2-yl)-2-(3-carbamoyl-2,4-difluorophenoxy)ethyl acetate] was tested. Which MIC did it give?
**A.** Its MIC is 0.25 to 1 µg/mL.

**Q.** How did the MIC turn out when `COCCOCC(=O)NCC(Oc1ccc(F)c(C(N)=O)c1F)c1nc(-c2ccc(C(F)(F)F)cc2)c(Br)o1` (centres unmarked) [Compound 301, 3-(1-(5-bromo-4-(4-(trifluoromethyl)phenyl)oxazol-2-yl)-2-(2-(2-methoxyethoxy)acetamido)ethoxy)-2,6-difluorobenzamide] was run?
**A.** Its MIC is 1 to 16 µg/mL (≈ 1.61 to 25.7 µM).

**Q.** Which MIC does the source give for `NC(=O)c1c(F)ccc(OC(CNC(=O)Cc2cccnc2)c2nc(-c3ccc(C(F)(F)F)cc3)c(Br)o2)c1F` (centres unmarked) [Compound 298, 3-(1-(5-bromo-4-(4-(trifluoromethyl)phenyl)oxazol-2-yl)-2-(2-(pyridin-3-yl)acetamido)ethoxy)-2,6-difluorobenzamide] here?
**A.** The MIC was 1 to 16 µg/mL (≈ 1.6 to 25.6 µM).

**Q.** Which MIC does the source give for `NC(=O)c1c(F)ccc(OC(CO)c2nc(-c3ccc(Cl)cc3F)c(Br)o2)c1F` (centres unmarked) [Compound 235, 3-(1-(5-bromo-4-(4-chloro-2-fluorophenyl)oxazol-2-yl)-2-hydroxyethoxy)-2,6-difluorobenzamide] here?
**A.** The MIC was < 0.25 µg/mL.
